Article PMC9870775, “Potent Dual Polymerase/Exonuclease Inhibitory Activities of Antioxidant Aminothiadiazoles Against the COVID-19 Omicron Virus: A Promising In Silico/In Vitro Repositioning Research Study” (Molecular Biotechnology, 2023)

assay: in vitro; conditions: African green monkey

Structure (SMILES) | CC50
CC(C)C(=O)OC[C@H]1O[C@@H](n2ccc(NO)nc2=O)[C@H](O)[C@@H]1O [Molnupiravir, molnupiravir, reference compound] | > 100 µM
Nc1nnc(CC(O)(Cc2nnc(N)s2)c2nnc(N)s2)s1 [CoViTris2022, 1,2,3-tris(5-amino-1,3,4-thiadiazol-2-yl)propan-2-ol] | > 100 µM
Nc1nnc([C@H](O)[C@@H](O)c2nnc(N)s2)s1 [Taroxaz-26, (1R,2R)-1,2-bis(5-amino-1,3,4-thiadiazol-2-yl)ethane-1,2-diol] | > 100 µM
Nc1nnc(-c2cnc3cc(Cl)ccc3c2O)s1 [ChloViD2022, 3-(5-amino-1,3,4-thiadiazol-2-yl)-7-chloroquinolin-4-ol] | > 100 µM
